For assay [1], the system named is rAmpC CNE-2 from C. neteri ATCC 33855. The format is biochemical. The settings on record: for Km: Ki or Km,apparent, 200 µM nitrocefin reporter, 500 nM rAmpC, all standard deviations ≤15%.
Assay [2] shares this test system. Type of assay: biochemical. The settings on record: nitrocefin as substrate; 500 nM rAmpC, pH 7, 30 °C.

Like-named read-outs stand apart in the source and are kept apart here.

Regarding `CC1(C)S[C@@H]2[C@H](NC(=O)[C@H](N)c3ccccc3)C(=O)N2[C@H]1C(=O)O` [Ampicillin, ampicillin], the Km in assay [1] was determined as 12 µM.
For `Cc1nnc(SCC2=C(C(=O)O)N3C(=O)[C@@H](NC(=O)Cn4cnnn4)[C@H]3SC2)s1` [Cefazolin, cefazolin], the Km in assay [1] worked out at 100 µM.
Take `CO[C@@]1(NC(=O)Cc2cccs2)C(=O)N2C(C(=O)O)=C(COC(N)=O)CS[C@@H]21` [Cefoxitin, cefoxitin]: the “Km, fold higher than for CDA-1 from C. davisae” value in assay [1] (CNE-2 compared with CDA-1 (ref 13)) was 100 fold. For the same compound, in assay [1], the Km was 54 µM.
Turning to `CO/N=C(\C(=O)N[C@@H]1C(=O)N2C(C(=O)O)=C(COC(N)=O)CS[C@H]12)c1ccco1` [Cefuroxime, cefuroxime], the Km in assay [1] amounted to 4 µM.
Take `CC1=C(C(=O)O)N2C(=O)[C@@H](NC(=O)[C@H](N)c3ccccc3)[C@H]2SC1` [Cephalexin, cephalexin]: the Km in assay [1] worked out at 5 µM.
Take `C[C@@H](O)[C@H]1C(=O)N2C(C(=O)O)=C(SCCN=CN)C[C@H]12` [Imipenem, imipenem]: the Km in assay [1] is 2 µM; in assay [1] (listed as imipenem) it was about 2 µM.
Consider `CC1(C)S[C@@H]2[C@H](NC(=O)Cc3ccccc3)C(=O)N2[C@H]1C(=O)O` [Penicillin, penicillin], for which the Km in assay [1] was determined as 11 µM.
As for `O=C(Cc1cccs1)N[C@@H]1C(=O)N2C(C(=O)O)=C(/C=C/c3ccc([N+](=O)[O-])cc3[N+](=O)[O-])CS[C@H]12` [nitrocefin], in assay [2], the Michaelis-Menten constant (Km) came out at 133 ± 11 µM and the turnover number (kcat) is 3.13 ± 0.27 s⁻¹.

The values above are taken from PMC9952435, “Characterization of Two Novel AmpC Beta-Lactamases from the Emerging Opportunistic Pathogen, Cedecea neteri” (Antibiotics, 2023).
